Active and inactive are the calls of the source. The calls are words filed in the database; no cut-off is given here.
Key:
Acetylcholinesterase = Acetylcholinesterase (Electrophorus electricus, UniProt O42275); assay: Inhibition of Electrophorus electricus AchE using […] as substrate incubated for 10 mins followed by substrate addition measured at 0 to 180 secs by Ellman's method
[1] = molecular target: Amyloid-beta precursor protein (Homo sapiens) (UniProt P05067); assay: Inhibition of amyloid beta (1 to 42) (unknown origin) self-induced aggregation at 25 uM measured after 46 to 48 hrs by Thioflavin binding assay relative to control; settings: time 46-48 hrs
Cholinesterase = Cholinesterase (Equus caballus, UniProt P81908)
Description: Inhibition of equine serum BchE using S-butyryl thiocholine iodide as substrate incubated for 10 mins followed by substrate addition measured at 0 to 180 secs by Ellman's method

PC-12 = assay: Cytoprotective activity against H2O2-induced oxidative damage in rat PC-12 cells assessed as cell viability at 1 uM preincubated for 4 hrs followed by H2O2 treatment for another 24 hrs by MTT assay; format: functional, cell-based; settings: time 28.0 hrs
in vitro = settings: PAMPA

Sequence of Cholinesterase (P81908 whole entry): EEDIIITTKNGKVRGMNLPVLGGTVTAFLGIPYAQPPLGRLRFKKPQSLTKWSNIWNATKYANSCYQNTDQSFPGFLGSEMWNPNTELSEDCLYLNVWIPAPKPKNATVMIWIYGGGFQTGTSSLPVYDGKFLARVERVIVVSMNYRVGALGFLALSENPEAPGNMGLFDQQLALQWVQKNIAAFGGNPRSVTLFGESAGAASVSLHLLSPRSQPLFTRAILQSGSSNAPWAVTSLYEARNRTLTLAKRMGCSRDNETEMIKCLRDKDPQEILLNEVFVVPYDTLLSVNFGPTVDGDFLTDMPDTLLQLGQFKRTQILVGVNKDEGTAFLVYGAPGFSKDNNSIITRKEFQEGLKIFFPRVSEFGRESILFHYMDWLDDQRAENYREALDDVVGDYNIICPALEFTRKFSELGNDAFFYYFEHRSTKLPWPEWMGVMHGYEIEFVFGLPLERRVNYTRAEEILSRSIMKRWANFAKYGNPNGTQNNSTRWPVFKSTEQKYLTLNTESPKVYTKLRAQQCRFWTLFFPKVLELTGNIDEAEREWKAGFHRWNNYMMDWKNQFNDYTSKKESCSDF
Sequence of Amyloid-beta precursor protein (Homo sapiens) (P05067 whole entry): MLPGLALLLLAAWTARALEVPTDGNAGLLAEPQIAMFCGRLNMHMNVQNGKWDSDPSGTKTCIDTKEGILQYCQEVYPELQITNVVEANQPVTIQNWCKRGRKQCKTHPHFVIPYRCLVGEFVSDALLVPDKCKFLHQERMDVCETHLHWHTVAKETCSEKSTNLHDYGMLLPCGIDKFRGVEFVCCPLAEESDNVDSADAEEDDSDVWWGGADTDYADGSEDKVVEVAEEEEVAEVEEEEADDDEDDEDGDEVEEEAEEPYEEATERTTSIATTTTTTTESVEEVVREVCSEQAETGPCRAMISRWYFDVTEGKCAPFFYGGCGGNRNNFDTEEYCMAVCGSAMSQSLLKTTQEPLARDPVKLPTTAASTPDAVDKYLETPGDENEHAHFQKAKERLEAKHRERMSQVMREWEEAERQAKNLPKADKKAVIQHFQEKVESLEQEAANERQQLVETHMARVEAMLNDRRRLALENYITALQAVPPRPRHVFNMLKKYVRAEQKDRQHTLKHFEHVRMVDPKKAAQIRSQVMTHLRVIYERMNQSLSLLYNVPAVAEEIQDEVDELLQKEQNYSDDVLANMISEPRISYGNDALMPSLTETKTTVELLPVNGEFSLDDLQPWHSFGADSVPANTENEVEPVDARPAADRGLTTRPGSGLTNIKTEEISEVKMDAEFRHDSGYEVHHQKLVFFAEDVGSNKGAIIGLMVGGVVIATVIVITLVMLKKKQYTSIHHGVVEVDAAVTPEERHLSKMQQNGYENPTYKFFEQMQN
Sequence of Acetylcholinesterase (O42275 whole entry): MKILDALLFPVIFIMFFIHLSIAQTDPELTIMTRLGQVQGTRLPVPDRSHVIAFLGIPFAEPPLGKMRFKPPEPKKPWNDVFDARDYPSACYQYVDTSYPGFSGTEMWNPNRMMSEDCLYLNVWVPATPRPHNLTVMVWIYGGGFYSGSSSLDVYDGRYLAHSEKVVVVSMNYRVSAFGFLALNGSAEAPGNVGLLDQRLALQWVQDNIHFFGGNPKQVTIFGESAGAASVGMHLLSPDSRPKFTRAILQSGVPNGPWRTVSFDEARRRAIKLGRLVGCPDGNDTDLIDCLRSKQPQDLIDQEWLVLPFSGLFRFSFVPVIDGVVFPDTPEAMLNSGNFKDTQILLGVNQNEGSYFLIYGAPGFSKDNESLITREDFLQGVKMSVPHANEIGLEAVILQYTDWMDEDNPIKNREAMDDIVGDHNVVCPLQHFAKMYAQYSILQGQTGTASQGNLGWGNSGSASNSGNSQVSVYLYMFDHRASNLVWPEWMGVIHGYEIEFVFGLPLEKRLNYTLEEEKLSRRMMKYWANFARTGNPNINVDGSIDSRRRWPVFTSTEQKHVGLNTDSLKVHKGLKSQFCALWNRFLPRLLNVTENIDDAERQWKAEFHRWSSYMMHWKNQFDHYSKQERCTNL

SMILES	IC50 (Acetylcholinesterase)	inhibition [1]	IC50 (Cholinesterase)	Activity (PC-12)	Papp (in vitro)
CN1CCN(CCCOc2cc3c4c(nccc4c2)-c2ccccc2C3=O)CC1	0.82 µM	29.1%	> 100 µM		
O=C1c2ccccc2-c2nccc3cc(OCCCCN4CCOCC4)cc1c23	7.3 µM	13.1%	> 100 µM	Active	
O=C1c2ccccc2-c2nccc3cc(OCCN4CCN(CCO)CC4)cc1c23	0.42 µM	14.9%	> 100 µM	Active	
O=C1c2ccccc2-c2nccc3cc(OCCCCN4CCN(CCO)CC4)cc1c23	0.92 µM	26.1%	> 100 µM	Active	
O=C1c2ccccc2-c2nccc3cc(OCCN4CCOCC4)cc1c23	19.7 µM	24.4%	> 100 µM	Active	
Clc1cccc(Cl)c1N=C1NCCN1 [CLONIDINE]					5.7 ×10⁻⁶ cm/s
CC1CCCCN1CCCCOc1cc2c3c(nccc3c1)-c1ccccc1C2=O (configuration not stated)	0.25 µM	34.8%	4.15 µM	Active	
CN1CCN(CCOc2cc3c4c(nccc4c2)-c2ccccc2C3=O)CC1	0.86 µM	18.5%	> 100 µM	Active	
O=C1c2ccccc2-c2nccc3cc(OCCCN4CCOCC4)cc1c23	10.2 µM	23.5%	> 100 µM	Active	

— ChEMBL document CHEMBL5120794, “Development of 5-hydroxyl-1-azabenzanthrone derivatives as dual binding site and selective acetylcholinesterase inhibitors” (Eur J Med Chem, 2022)
